Test results reported in patent publication US20060148763A1, “Compounds and methods for regulating triglyceride levels” (priority 2005, published 2006).

Tested on: serum triglyceride levels
Assay: Rabbit hypercholesteremic model (2% cholesterol diet, 7 weeks): serum triglycerides
Assay type: in vivo, Male New Zealand white rabbits
Experimental: The anti-atherogenic effects of P5P alone and in combination with simvastatin in a rabbit hypercholesteremic model were determined. The study compared the effects of P5P and simvastatin alone and in combination on atherosclerotic lesion formation, lipid profile (total cholesterol, LDL, HDL, triglycerides and oxidized LDL), homocysteine levels and various markers of inflammation (CRP, IL-1β, IL-6, IFN-γ and TNF-α).
Animals—Male New Zealand white rabbits 2.0-3.0 kg.
Animal Feed—The normocholesterol diet is Co-op Complete Rabbit Feed manufactured by Federated Co-operatives Limited (Saskatchewan). The 2% cholesterol diet is Test Diet 0009459 MRab/2% Chol 3/16 manufactured by Purina Mills (USA).
The rabbits were fed the normocholesterol and 2% cholesterol diet ad libitum. All animals received a timothy cube after blood sampling. […]
Group 3: Hypercholesterol diet+P5P 10 mg/kg/day
Group 4: Hypercholesterol diet+simvastatin 5 mg/kg/day
Group 5: Hypercholesterol diet+P5P 10 mg/kg/day+simvastatin 5 mg/kg/day
The rabbits were fed a normocholesterol or hypercholesterol diet for a total of 7 weeks. The normocholesterol rabbits were treated once per day with 1 ml of ethanol and 5 ml of RO water via a nasogastric tube. The hypercholesterol animals were treated once per day with either P5P (10 mg/kg), simvastatin (5 mg/kg) or a combination of P5P and simvastatin (P5P 10 mg/kg; simvastatin 5 mg/kg) via a nasogastric tube. The P5P was dissolved in 5 ml of 0.05 N NaOH so that the pH of the solution is approximately 7. The simvastatin was dissolved in 1 ml of anhydrous ethanol.
Five ml of blood was collected from the marginal ear vein of the rabbits at 0, 2, 4 and 6 weeks. Prior to blood collection the animals were sedated with 1 mg/kg of acepromazine. Following collection, the serum was separated. The serum is aliquoted (500 μl) and frozen at −80° C. until used for the assaying various lipids (total cholesterol, LDL, HDL, triglycerides, oxidized LDL) and cytokines (CRP, IL-1β, IL-6, IFN-γ and TNF-α).
At 7 weeks, the animals were anesthetized and 10 ml of blood was collected. Then the animals were euthanized, and the heart and thoracic aorta removed. The hearts and aortas were frozen in liquid nitrogen or an ethanol dry ice bath and stored at −80° C. until analyzed.
Test Articles—P5P (pyridoxal 5′-phosphate monohydrate) was purchased from Sigma (P82870). Simvastatin is obtained from ACIC Fine Chemicals Inc. Two test compound vials were provided for each animal for each day. The first vial (small) was diluted in 1 ml of anhydrous ethanol. The second vial was diluted in either 5 ml of RO water or 5 ml of 0.05 N NaOH. The diluent for each vial was clearly marked on the vial. The test solutions were prepared fresh each day just before they were administered to the animals. The stock P5P was stored in a refrigerator at 4° C. under low light conditions. The simvastatin was stored following the manufacture recommendations. The individual test vials were stored in a refrigerator at 4° C. under low light conditions.
Test Article(s) Dose, Route of Administration and Duration—The rabbits were treated orally with the drugs, once per day for a total of 7 weeks. The contents of vial one (small; 1 ml) were given to the animals first, followed by the contents of vial 2 (large; 5 ml). The test compound treatments were followed by a 5 ml RO water chaser.

[1] = hypercholesterol diet, n = 5, P5P 10 mg/kg/day, simvastatin 5 mg/kg/day oral
[2] = rabbits fed the hypercholesterol diet, 7 weeks

Structure (SMILES): Cc1ncc(COP(=O)(O)O)c(C=O)c1O [P5P, pyridoxal-5′-phosphate]
- average serum triglyceride levels as fraction of the levels observed in the control rabbits (end of the 7 week study period): about ⅓
- Triglycerides, Week 2 [1]: 1.244 mmol/L
- Triglycerides, Week 4 [1]: 1.530 mmol/L
- Triglycerides, Week 6 [1]: 1.066 mmol/L
- Triglycerides, Week 7 (hypercholesterol diet, n = 5, P5P 10 mg/kg/day, simvastatin 5 mg/kg/day oral, end of study): 1.038 mmol/L
- Triglycerides, Week 0 (hypercholesterol diet, n = 5, P5P 10 mg/kg/day, simvastatin 5 mg/kg/day oral, start of study): 1.168 mmol/L
- comparison of serum triglyceride reduction between treatments [2]: more effective than simvastatin treatment
- effect on serum triglyceride levels vs untreated control rabbits [2]: effective in reducing serum triglyceride levels
